According to publication PMC10400562, “Label-free measurement of antimicrobial peptide interactions with lipid vesicles and nanodiscs using microscale thermophoresis” (Scientific Reports, 2023):
Where two headings read alike, the source gives them in different places. Non-standard residues stand in square brackets, D forms with d. Residues, ends and D or L forms follow the SMILES beside them.

Key:
[1] = tested on: E. coli ATCC 25922; format: cell-based; conditions: for E. coli MIC (ATCC 25922): ATCC 25922, 24 h
Experimental: (§1) The bacterial strains used were E. coli ATCC 25922 and S. aureus ATCC 9144. Overnight cultures and MIC assays were performed in cationic-adjusted BD BBL Mueller Hinton II Broth (MHB II, 212322, Becton, Dickson and Company, Sparks, MD, USA).
(§2) The MICs for 1–5 were determined using the CLSI M07-A9 guidelines. Working solutions were prepared in double distilled water containing max. 1% DMSO. A concentration range between 256–0.25 µg/mL was tested for each peptide. The bacterial inoculum was 1 × 10^6 cells/mL and incubated 1:1 with each test compound in a polypropylene 96-well round-bottom plate (655209, Greiner Bio-One, Kresmmuenster, Austria). Each MIC test was performed in three biological replicates, consisting of four technical replicates. Positive controls (without antibiotics) and negative controls (without bacteria) were included for each technical replicate. The reference antibiotic erythromycin was included to assure quality control. The plates were incubated for 24 h at 37 °C. The MIC value was defined as the lowest concentration of compound resulting in no visible bacterial growth.

[2] = tested on: S. aureus ATCC 9144; format: cell-based; conditions: for S. aureus MIC (ATCC 9144): ATCC 9144, 24 h
Experimental: as §1, §2

[3] = Label-free MST, peptide binding to SMA-QA nanodiscs; conditions: for Kd: label-free MST, SMA-QA nanodiscs (cationic belt), 2500 nM AMP, Hill fit, mean ± SD of triplicates, '>' = minimum value; for SMA-QA KP, DMPC (MST) / SMA-QA KP, DMPC/PG (MST): partition coefficient from initial fluorescence on MST instrument, SMA-QA nanodiscs, hyperbolic fit, ± SD of triplicate fits
Experimental: The MST data for two nanodisc types, SMA and SMA-QA, were evaluated using the same methodology as the vesicle data, with FHot taken during the TRIC, and Fnorm plotted against log[lipid] and fit to Eq. (6).
The DMPC, and DMPC with 5% DMPG 21 mM vesicle stocks were used for the nanodisc preparation. The stocks were combined with an 8% SMA stock solution to yield a final SMA concentration of 1% for SMA nanodiscs. The stocks were combined with a 100 mg/mL SMA-QA stock to yield a final lipid:SMA-QA w/w ratio of 1:1.5. The combined SMA/SMA-QA and lipid mixture were incubated at room temperature overnight and purified by SEC. Fractions containing SMA/SMA-QA discs were concentrated using centrifugation filters. Total lipid concentration was determined by ^31P NMR (Figs. S4–S7). Nanodisc size was confirmed using a Malvern Zetasizer Nano ZS (Malvern Panalytical Ltd, Malvern, United Kingdom).
All MST measurements were conducted on a NanoTemper Monolith NT. Labelfree instrument, using Monolith NT. Labelfree standard treated zero background capillaries.
A dilution series of vesicles/nanodiscs was prepared from 3 mM to 100 nM lipid concentrations, comprising 15 discrete samples, and an additional zero lipid sample, for a total of 16 lipid concentrations. Final MST samples were prepared as a combination of 25 µL lipid solution and 25 µL 5 µM peptide solution (Table S1 in the Supporting Information).
MST measurements were conducted with excitation power set to 15%, with the MST power set to high. Laser time settings were: 3 s pre-laser, 30 s on time, and 3 s after heating. FHot was taken from the T-jump period after 1.5 s and FCold taken in the second prior to IR laser activation. For the evaluation of KP, the initial fluorescence was taken as the value reported during the period before the application of the laser. The MST response and initial fluorescence were extracted directly as a text file for further processing in MATLAB.
In a typical binding experiment that yields a sigmoidal curve, the Hill equation can be fitted to yield KD:[66]6 y=y0+EMaxLipid^n/KDn+Lipid^n where y is the MST response, y0 is the MST response of the AMP in an aqueous solution (i.e., in the absence of lipids), n is the Hill coefficient, and EMax is the maximal effect of the tested substrate. The removal of outlying MST response points was necessary. Erroneous points were identified by poor MST trace shapes or higher than expected initial fluorescence that was absent in the other replicates or subsequent points, but otherwise no further treatment of data was necessary. In all instances the MST response was plotted against log lipid concentration in nM and fit to Eq. (6).
The Kp of a molecule can be determined experimentally by observing changes in fluorescent intensity in the presence of an increasing concentration of lipid, and fitting to Eq. (8)[43].8 I/Iaq=1+KpVmLipidIL/Iaq/1+KPVmLipid
In Eq. (8) the fluorescence intensity of the AMP (I) is normalised to the fluorescence intensity of the AMP in an aqueous environment (Iaq), Vm is the molar volume of the lipids and IL is the fluorescence intensity of the AMP in the lipidic environment. For Vm, the average molar volume of the lipid composition is used. In the case of the DMPC only environments it is taken as the Vm of DMPC (1.023 nm^3), and in the DMPC-DMPG mixture it is the weighted average relative to the composition used (Vm DMPG = 0.997 nm^3)[54].

[4] = read-out: SMA-QA KD, DMPC (MST)
[5] = read-out: SMA-QA KD, DMPC/PG (MST)

SMILES	E. coli MIC (ATCC 25922) [1] [µg/mL]	S. aureus MIC (ATCC 9144) [2] [µg/mL]	Kd [3, 4] [µM]	Kd [3, 5] [µM]	SMA-QA KP, DMPC (MST) [3]	SMA-QA KP, DMPC/PG (MST) [3]	antimicrobial activity against tested strain ([1]; E. coli ATCC 25922, statement in text)	antimicrobial activity against tested strain ([2]; S. aureus ATCC 9144, statement in text)
N=C(N)NCCC[C@@H]1NC(=O)[C@H](CCCNC(=N)N)NC(=O)[C@H](Cc2c[nH]c3ccccc23)NC(=O)[C@H](Cc2c[nH]c3ccccc23)NC(=O)[C@H](Cc2c[nH]c3ccccc23)NC(=O)[C@H](CCCNC(=N)N)NC1=O [compound 1] (cyclo(WWWRRR))	8	4	142 ± 17	40 ± 5	7.07 ± 1.78 × 10^3	7.63 ± 1.89 × 10^3		
NCCCC[C@@H]1NC(=O)[C@H](CCCCN)NC(=O)[C@H](Cc2c[nH]c3ccccc23)NC(=O)[C@H](Cc2c[nH]c3ccccc23)NC(=O)[C@H](Cc2c[nH]c3ccccc23)NC(=O)[C@H](CCCCN)NC1=O [compound 3] (cyclo(WWWKKK))	8	32	267 ± 47	145 ± 55	9.16 ± 2.86 × 10^3	4.93 ± 0.81 × 10^3		
CC(C)C[C@@H]1NC(=O)[C@@H](CCCNC(=N)N)NC(=O)[C@H](CCCCN)NC(=O)[C@H](CC(N)=O)NC(=O)[C@@H](Cc2c[nH]c3ccccc23)NC(=O)[C@H](Cc2c[nH]c3ccccc23)NC1=O [compound 5] (cyclo(LW[dW]NK[dR]))	> 256	> 256		> 1000	17.12 ± 12.90 × 10^3	3.35 ± 0.57 × 10^3	inactive	inactive

Second part, led by results:

E. coli MIC (ATCC 25922) [1] [µg/mL]	S. aureus MIC (ATCC 9144) [2] [µg/mL]	Kd [3, 4] [µM]	Kd [3, 5] [µM]	SMA-QA KP, DMPC (MST) [3]	SMA-QA KP, DMPC/PG (MST) [3]	SMILES	antimicrobial activity against tested strain ([1]; E. coli ATCC 25922, statement in text)	antimicrobial activity against tested strain ([2]; S. aureus ATCC 9144, statement in text)
32	32	> 541	> 615	36.55 ± 11.82 × 10^3	12.62 ± 4.16 × 10^3	N=C(N)NCCC[C@@H]1NC(=O)[C@H](Cc2c[nH]c3ccccc23)NC(=O)[C@H](CCCNC(=N)N)NC(=O)[C@H](Cc2c[nH]c3ccccc23)NC(=O)[C@H](CCCNC(=N)N)NC(=O)[C@H](Cc2c[nH]c3ccccc23)NC1=O [compound 2] (cyclo(WRWRWR))		
64	128	> 713		6.15 ± 6.54 × 10^3	3.23 ± 1.87 × 10^3	NCCCC[C@@H]1NC(=O)[C@H](Cc2c[nH]c3ccccc23)NC(=O)[C@H](CCCCN)NC(=O)[C@H](Cc2c[nH]c3ccccc23)NC(=O)[C@H](CCCCN)NC(=O)[C@H](Cc2c[nH]c3ccccc23)NC1=O [compound 4] (cyclo(WKWKWK))		
